From EP0207497A2, “Quinolonecarboxylic acid derivative and process for its preparation” (KYORIN PHARMACEUTICAL CO., LTD., priority 1985, dated 1987)

What was measured:
Assay type in all cases: cell-based
B. vulgatus KYA 29327 = assay: Antibacterial spectrum, MIC determination (method of Japan Society of Chemotherapy); conditions: Phocaeicola vulgatus, KYA29327; B. vulgatus KYA 29327, Gram -, 10^6 cells/ml; read-out: MIC
[1] = system: Proteus vulgaris IFO 3167; assay: as above; conditions: IFO3167; Proteus vulgaris IFO 3167, Gram -, 10^6 cells/ml; read-out: MIC
P. aeruginosa IFO 12689 = assay: as above; conditions: Pseudomonas aeruginosa, IFO12689; P. aeruginosa IFO 12689, Gram -, 10^6 cells/ml
E. coli ATCC 10536 = assay: as above; conditions: Escherichia coli, ATCC10536; E. coli ATCC 10536, Gram -, 10^6 cells/ml; read-out: MIC
B. fragilis 0558 = assay: as above; conditions: Bacteroides fragilis; B. fragilis 0558, Gram -, 10^6 cells/ml; read-out: MIC
[2] = system: S. aureus IID 670 (Terajima); assay: as above; conditions: Staphylococcus aureus, IID670; S. aureus IID 670 (Terajima), Gram +, 10^6 cells/ml; read-out: MIC
Pst. micros UPI 5464-1 = assay: as above; conditions: Parvimonas micra, UPI54641; Pst. micros UPI 5464-1, Gram +, 10^6 cells/ml
[3] = system: Citrobacter freundii IID 976; assay: as above; conditions: IID976; Citrobacter freundii IID 976, Gram -, 10^6 cells/ml; read-out: MIC
[4] = system: Peptostreptococcus anaerobius KYA 27337; assay: as above; conditions: KYA27337; Peptostreptococcus anaerobius KYA 27337, Gram +, 10^6 cells/ml; read-out: MIC
P. cepacia GIFU 518 = assay: as above; conditions: Burkholderia cepacia, GIFU518; P. cepacia GIFU 518, Gram -, 10^6 cells/ml; read-out: MIC
[5] = system: Enterobacter cloacae IID 977; assay: as above; conditions: IID977; Enterobacter cloacae IID 977, Gram -, 10^6 cells/ml
[6] = system: Pseudomonas aeruginosa V-1; assay: as above; conditions: V1; Pseudomonas aeruginosa V-1, Gram -, 10^6 cells/ml
[7] = system: Peptococcus magnus KY 017; assay: as above; conditions: Finegoldia magna, KY017; Peptococcus magnus KY 017, Gram +, 10^6 cells/ml; read-out: MIC
[8] = system: Alcaligenes faecalis 0114002; assay: as above; conditions: Alcaligenes faecalis 0114002, Gram -, 10^6 cells/ml
S. pneumoniae IID 552 = assay: as above; conditions: Streptococcus pneumoniae, IID552; S. pneumoniae IID 552, Gram +, 10^6 cells/ml
[9] = system: Clostridium difficile I-E; assay: as above; conditions: Clostridioides difficile, Gram +, 10^6 cells/ml
P. aeruginosa IID 1210 = assay: as above; conditions: Pseudomonas aeruginosa, IID1210; P. aeruginosa IID 1210, Gram -, 10^6 cells/ml
[10] = system: Acinetobacter anitratus IID 876; assay: as above; conditions: Acinetobacter calcoaceticus, IID876; Acinetobacter anitratus IID 876, Gram -, 10^6 cells/ml; read-out: MIC
[11] = system: Propionibacterium acens 11828; assay: as above; conditions: Propionibacterium acens 11828, Gram +, 10^6 cells/ml; read-out: MIC
[12] = system: Bacteroides fragilis GM 7000; assay: as above; conditions: GM7000; Bacteroides fragilis GM 7000, Gram -, 10^6 cells/ml; read-out: MIC
[13] = system: Streptococcus pyogenes (S-8); assay: as above; conditions: Streptococcus pyogenes (S-8), Gram +, 10^6 cells/ml; read-out: MIC
F. necrophorum S-45 = assay: as above; conditions: Fusobacterium necrophorum, S45; F. necrophorum S-45, Gram -, 10^6 cells/ml
[14] = system: Veillonella parvula KYA 10790; assay: as above; conditions: KYA10790; Veillonella parvula KYA 10790, Gram -, 10^6 cells/ml
[15] = system: Klebsiella pneumoniae KY(GN)6445; assay: as above; conditions: Klebsiella pneumoniae KY(GN)6445, Gram -, 10^6 cells/ml; read-out: MIC
B. fragilis 25285 = assay: as above; conditions: Bacteroides fragilis; B. fragilis 25285, Gram -, 10^6 cells/ml; read-out: MIC
S. pyogenes IID 692 = assay: as above; conditions: Streptococcus pyogenes, IID692; S. pyogenes IID 692, Gram +, 10^6 cells/ml
[16] = system: Yersinia enterocolitica IID 981; assay: as above; conditions: IID981; Yersinia enterocolitica IID 981, Gram -, 10^6 cells/ml; read-out: MIC
Shigella sonnei IID 969 = assay: as above; conditions: IID969; Shigella sonnei IID 969, Gram -, 10^6 cells/ml
Protocol: Minimal inhibitory concentrations (MICs) were determined in accordance with the method recommended by Japan Society of Chemotherapy.

C. ramosum = assay: as above; conditions: Thomasclavelia ramosa; C. ramosum, Gram +, 10^6 cells/ml; read-out: MIC
K. pneumoniae 1-220S = assay: as above; conditions: Klebsiella pneumoniae, 1220S; K. pneumoniae 1-220S, Gram -, 10^6 cells/ml; read-out: MIC
[17] = system: Morganella morganii IID 602; assay: as above; conditions: IID602; Morganella morganii IID 602, Gram -, 10^6 cells/ml
[18] = system: Escherichia coli NIHJ JC-2; assay: as above; conditions: NIHJJC2; Escherichia coli NIHJ JC-2, Gram -, 10^6 cells/ml
[19] = system: B. thetaiotaomicron (0661); assay: as above; conditions: Bacteroides thetaiotaomicron; B. thetaiotaomicron (0661), Gram -, 10^6 cells/ml; read-out: MIC
[20] = system: Fusobacterium mortiferum 4249; assay: as above; conditions: Fusobacterium mortiferum 4249, Gram -, 10^6 cells/ml; read-out: MIC
[21] = system: Serratia marcescens IID 618; assay: as above; conditions: IID618; Serratia marcescens IID 618, Gram -, 10^6 cells/ml; read-out: MIC
S. aureus Smith = assay: as above; conditions: Staphylococcus aureus; S. aureus Smith, Gram +, 10^6 cells/ml; read-out: MIC
B. distasonis 8503 = assay: as above; conditions: Parabacteroides distasonis; B. distasonis 8503, Gram -, 10^6 cells/ml; read-out: MIC
[22] = system: Staphylococcus aureus 209 P; assay: as above; conditions: Staphylococcus aureus 209 P, Gram +, 10^6 cells/ml; read-out: MIC
P. maltophilia GIFU 2491 = assay: as above; conditions: Stenotrophomonas maltophilia, GIFU2491; P. maltophilia GIFU 2491, Gram -, 10^6 cells/ml; read-out: MIC
E. faecalis IID 682 = assay: as above; conditions: Enterococcus faecalis, IID682; E. faecalis IID 682, Gram +, 10^6 cells/ml
E. coli ML 4707 = assay: as above; conditions: Escherichia coli, ML4707; E. coli ML 4707, Gram -, 10^6 cells/ml; read-out: MIC
[23] = system: Salmonella enteritidis IID 604; assay: as above; conditions: Salmonella enterica; Salmonella enteritidis IID 604, Gram -, 10^6 cells/ml; read-out: MIC
C. perfringens KYA 13123 = assay: microbe, parasite or virus in culture; conditions: Clostridium perfringens, KYA13123
P. mirabilis IID 994 = assay: Antibacterial spectrum, MIC determination (method of Japan Society of Chemotherapy); conditions: Proteus mirabilis, IID994; P. mirabilis IID 994, Gram -, 10^6 cells/ml; read-out: MIC
[24] = system: Eubacterium lentum GAI 5242; assay: as above; conditions: Eggerthella lenta, GAI5242; Eubacterium lentum GAI 5242, Gram +, 10^6 cells/ml
S. epidermidis IID 866 = assay: as above; conditions: Staphylococcus epidermidis, IID866; S. epidermidis IID 866, Gram +, 10^6 cells/ml; read-out: MIC
[25] = system: Bacillus subtilis PCI 219; assay: as above; conditions: PCI219; Bacillus subtilis PCI 219, Gram +, 10^6 cells/ml; read-out: MIC
F. varium KYA 8501 = assay: as above; conditions: Fusobacterium varium, KYA8501; F. varium KYA 8501, Gram -, 10^6 cells/ml

Measured: MIC

NC1CCN(c2c(F)cc3c(=O)c(C(=O)O)cn(C4CC4)c3c2Br)C1 (stereo not drawn) [Exp. 1, 7-(3-Amino-1-pyrrolidinyl)-8-bromo-1-cyclopropyl-6-fluoro-1,4-dihydro-4-oxo-3-quinolinecarboxylic acid]
0.025 µg/mL: [3] | [5] | [16] | K. pneumoniae 1-220S | [23] | [25]
0.05 µg/mL: [2] | [10] | [17] | [21] | S. aureus Smith | [22] | P. maltophilia GIFU 2491
1.56 µg/mL: [11] | C. ramosum
0.39 µg/mL: P. aeruginosa IFO 12689 | P. cepacia GIFU 518 | B. distasonis 8503
0.0125 µg/mL: [1] | E. coli ATCC 10536 | [15] | E. coli ML 4707 | P. mirabilis IID 994
0.0063 µg/mL: Shigella sonnei IID 969 | [18]
0.2 µg/mL: B. vulgatus KYA 29327 | [4] | [6] | F. necrophorum S-45 | S. pyogenes IID 692 | [19] | [20] | C. perfringens KYA 13123
0.78 µg/mL: [9] | P. aeruginosa IID 1210 | F. varium KYA 8501
0.1 µg/mL: all other assays above
